Data from patent publication US9757427B2, “Combination comprising zidovudine and polymyxin” (HELPERBY THERAPEUTICS LIMITED, priority 2013, dated 2017).

Key:
[1] = test system: log phase Escherichia coli and Klebsiella pneumoniae; experiment: chequerboard method, MIC alone and in combination, log phase bacteria; assay type: cell-based; conditions: for MIC before combination: single agent, chequerboard
Description: In relation to (b) above, methods for determining activity against log phase bacteria include a determination, under standard conditions (i.e. conditions known to those skilled in the art, such as those described in WO 2005014585, the disclosures of which document are hereby incorporated by reference), of Minimum Inhibitory Concentration (“MIC”) or Minimum Bactericidal Concentration (“MBC”) for a test compound. Specific examples of such methods are described below. In Vitro Activity of Zidovudine Combined Together with Colistin Against Log Phase Escherichia coli and Klebsiella pneumoniae Using Chequerboard Method

[2] = test system: log phase Klebsiella; experiment: time kill curve against log phase Klebsiella; assay type: cell-based

Compound | MIC of HT0120663 in combination ([1]; combined with 2 μg/ml of colistin) [µg/mL] | MIC before combination [1] [µg/mL] | time kill outcome after 6 hours ([2]; HT0120663 at 4 μg/ml, after the 6 hour kill) | log kill ([2]; HT0120663 at 4 μg/ml, at 6 hours) | MIC of colistin in combination ([1]; combined with 2 μg/ml of HT0120663) [µg/mL] | time kill outcome ([2]; Colistin at 16 μg/ml)
Cc1cn([C@H]2C[C@H](N=[N+]=[N-])[C@@H](CO)O2)c(=O)[nH]c1=O [HT0120663, Zidovudine] | 1 | 4 | regrowth of the bacteria | about 1 log |  | 
Colistin |  | 4 |  |  | 0.25 | inhibition up to 6 hours
